Values quoted from earlier work as cited in paper PMC4022290 (Nuclear medicine and biology, 2013).

System: tumors

For “D-Phe-Gln-Trp-Ala-Val-Gly-His-Sta-Leu-NH2 [RM2]”, the “uptake and retention in tumors vs agonist GRPr-targeting ligands” value is given as “improved uptake and retention in tumors as compared to agonist GRPr-targeting ligands”.
